According to patent US10955415B2, “CD247 as a biomarker for assessing the effect of chemotherapeutic and biological drugs” (YISSUM RESEARCH DEVELOPMENT COMPANY OF THE HEBREW …, priority 2011, dated 2021):
Entries after “also recorded” stand apart in the source; their conditions may differ.

Key:
CD247 (ζ chain) = system: CD247 (ζ chain); design: species or system mice; conditions: mouse, in vivo
Thy1.2+ (CD90+) T-cells = assay: T-cell proliferation of CFSE-labeled splenocytes activated with anti-CD3 and anti-CD28; format: in vivo; conditions: splenocytes of BCG-inflamed treated mice, anti-CD3/anti-CD28 activation
Experimental: FIG. 2C. Splenocytes from untreated, inflamed, and inflamed-treated i.v. with irinotecan were labeled with CFSE and activated with anti-CD3 and anti-CD28 antibodies or left non-activated. The proliferative response was assessed by monitoring cell divisions of gated CFSE-labeled Thy1.2+ (CD90+) cells. Data was calculated by percent of proliferating cells compared to steady state of non-activated of each group.
FIG. 18A-18E. Splenocytes and PBLs from mice untreated (naïve), inflamed, or inflamed and treated with 5-FU or CPT-11 were fixed, permeabilized, and double stained for the expression of CD247 (ζ-chain) (FIGS. 18A, 18B) and CD3ε-chain (FIGS. 18D, 18E), as shown by mean fluorescence intensity (MFI), measured in gated CD3^+ cells. FIG. 18C: Splenocytes from mice, naïve, inflamed and inflamed treated with 5-FU or CPT-11, were labeled with CFSE and activated with anti-CD3 and anti-CD28 antibodies or left non-activated. The proliferative response was assessed by monitoring cell divisions of gated CFSE-labeled Thy1.2+ (CD90+) T-cells. The percent of proliferating cells was calculated and compared to steady state levels of non-activated cells per each group. Data from three independent experiments is presented (n=3). Statistical analyses using t test indicated significant differences at 95%. Means and SEM are shown. *, P<0.05; **, P<0.01. FIG. 18F-18I. For the detection of myeloid differentiation state, splenocytes from each group were stained for (18F) DC11b^+CD11c^+ cells (representing DCs), (18G) DC11b^+F4/80^+ cells (representing monocytes), (18H) CD11c^+MHCII^+CD80^+ cells (representing fully differentiated […] as antigen presenting cells) and (18I) F4/80^+MHCII^+CD80^+ cells (representing fully differentiated […] as antigen presenting cells). Data from three independent experiments (n=4) is presented. Statistical analyses using t test indicated significant differences at 95%. Means and SEM are shown. *, P<0.05; **, P<0.01; ***, P<0.001. Abbreviations: Nor. (normal), Rel. (relative), Inf. (inflamed), ce. Pro. (cell proliferation)

S100A8/9 = S100A8/9 mRNA and S100A9 immunoblot in purified MDSCs and total spleen; format: in vivo; conditions: purified MDSCs and total splenic population, BCG-inflamed mice; for S100A9 protein levels: immunoblot
Text: FIG. 17A. Purified MDSCs from spleens (n=4); and FIG. 17B. A total spleen population was used to analyze mRNA levels of S100A8/9 (left), and to perform immunoblotting of S100A9 (right) following the course of chronic inflammation alone, chronically inflamed mice treated with 5-FU or CPT11 (n=4), α-Tubulin levels served as a control.
Analyses used either the splenocyte population or peripheral blood as mentioned above. Cells (5×10^7/ml, or 1×10^6/ml) were lysed with Tris-NaCl buffer containing 0.5% Triton X-100 and protease inhibitors for 30 min on ice. Proteins were resolved on 12% SDS-PAGE and subjected to immunoblotting analysis using the following specific antibodies: anti-CD247, antiCD3ε antibodies, anti-S100A9, anti-S100A8, anti-iNOS, anti-ARG1, and anti-αTubulin antibodies. Specific antibodies were detected by incubation with protein A (Amersham), anti-rat or anti-goat antibodies conjugated to horseradish peroxidase (Jackson Immunoresearch), followed by enhanced chemiluminescence and exposure to Kodak X-ray films.
Total RNA was recovered from splenocytes or isolated MDSCs using Tri-Reagent (Sigma) and was subjected to reverse transcription with m-MLV-RT (Invitrogen) and random primers (IDT). Quantitative mRNA expression was analyzed by real-time PCR (ABI 7900), with SYBR green (Invitrogen). RT-PCR primers were designed to recognize an exon-exon boundary in all transcripts.

cleaved caspase-3 = assay: Cleaved caspase-3 in splenic MDSCs (flow cytometry); format: in vivo; conditions: BCG-inflamed mice
Text: FIG. 17F. […] Means and SEM are shown. *, P<0.05; **, P<0.01. Abbreviations: Inf. (inflamed), Tot. sp. (total spleen), sp (spleen), g. (gated), Norm. (normal).

MDSCs [1] = assay: NO and ROS production gated on MDSCs, CRC mouse model; format: in vivo; conditions: CRC-bearing mice, splenocytes
Experimental: Splenocytes isolated from normal mice, CRC mice or CRC mice treated with 5-FU alone or in a combination with CPT11 (n=5) were analyzed for nitric oxide (NO, FIG. 23A) and reactive oxygen species (ROS, FIG. 23B) production, both by flow cytometry analysis gaiting on the MDSCs (Gr1+CD11b+) population. Histograms represent production levels, as shown by mean fluorescence intensity (MFI). Data from three independent experiments (n=3) are presented. Statistical analyses using t test indicate significant differences at 95%. Means and SEM are shown. *, P<0.05; **, P<0.01. Abbreviations: Norm. (normal), g. (gated).

MDSCs [2] = assay: NO production of MDSCs in colon epithel and lamina propria, CRC mouse model; format: in vivo; conditions: CRC-bearing mice, gated on MDSCs
colorectal cancer (CRC) = assay: Survival, colon structure and tumor loads of CRC-bearing mice; format: in vivo
Experimental: Survival of mice CRC, CRC-5-FU or CRC-5FU/CPT-11 treatment is shown as Kaplan-Meyer curve (n=20). Time points of AOM injections and the period of DSS addition are represented by gray arrows and lines, respectively. Start point of chemotherapy treatment and continual boosts are shown as black arrows.
The mouse model for CRC was established by two repeated injections of azoxymethane (AOM) (Sigma) in intervals of two weeks followed by two weekly administrations of DSS (Sigma) that was added to drinking water every two weeks for duration of about seven days. In order to test the influence of chemotherapeutic drugs on the induced-chronic inflammatory environment in a CRC model, after the second DSS treatment mice were randomized into three groups (n=10 mice) as follows: CRC control group, CRC and 5-FU i.p inoculated group and CRC and CPT-11 i.p inoculated group. Mice were sacrificed at week +11, three weeks after the second DSS treatment.
It important to note that in each of the experiments performed (presented in FIG. 21 and FIG. 22), pathological macroscopic and microscopic tests have been performed on the structure of the colon and counts were made of the tumor loads.

## O=c1[nH]cc(F)c(=O)[nH]1 [5-FU, 5-Fluorouracil]
CD247 (ζ chain)
  CD247 expression in T cells, PBLs: significant recovery
  CD247 expression in T cells, spleen: recovered significantly; also recorded: significant recovery
Thy1.2+ (CD90+) T-cells
  proliferative capacity of T cells: tendency of a functional recovery
S100A8/9
  mRNA levels of S100A8/9: significant decrease
  S100A9 protein levels: decreased amounts
Cleaved caspase-3
  cleaved caspase-3 expression in spleen-derived MDSCs: significant increase
MDSCs [1]
  NO and ROS production (MDSC suppressive activity): decreased the suppressive activity
MDSCs [2]
  NO production in epithel and lamina propria: reduced
Colorectal cancer (CRC)
  survival of CRC mice (Kaplan-Meyer): increased survival
Colorectal cancer (CRC); macroscopic and microscopic pathology
  curable effects on colon structure and tumor loads: observed

## CCc1c2c(nc3ccc(OC(=O)N4CCC(N5CCCCC5)CC4)cc13)-c1cc3c(c(=O)n1C2)COC(=O)[C@]3(O)CC [Irinotecan]
CD247 (ζ chain)
  CD247 expression in T cells, PBLs: further significantly decreased; also recorded: tendency of decreased expression
  CD247 expression in T cells, spleen: further significantly decreased; also recorded: strong down-regulation
Thy1.2+ (CD90+) T-cells; listed as CPT11
  proliferative capacity of T cells: impaired proliferative capacity
Thy1.2+ (CD90+) T-cells; listed as CPT-11
  proliferative capacity of T cells: significantly diminished
S100A8/9
  mRNA levels of S100A8/9: no significant changes
  S100A9 protein levels: remained high
Colorectal cancer (CRC)
  survival of CRC mice (Kaplan-Meyer): reduced survival rate
